Assay results as given in patent publication US9481683B2, “1,3-benzothiazinone sulfoxide and sulfone compounds” (UNIVERSITY OF NOTRE DAME DU LAC, priority 2014, dated 2016).
≈ marks a conversion by molar mass, not a printed value. Like-named read-outs stand apart in the source and are kept apart here.

Legend:
[1] = tested on: M. luteus ATCC10240; test: Broth microdilution MIC, M. luteus; format: cell-based; conditions: 37° C., 18-20 h, average of three measurements
[2] = tested on: HeLa; test: Cytotoxicity, crystal violet biomass reduction assay, HeLa; format: cell-based; conditions: 72 h
Protocol: (§1) Cytotoxicity Assays: against PC3, HeLa and MCF-7 cell lines.
(§2) In vitro activities against cells were determined with a crystal violet biomass reduction assay. Cells were grown in media supplemented with fetal bovin serum and penicillin/streptromycin antibiotic. 100 μL of cell inoculums was added to each well. After cell inoculation, the 96 well micro-titer plates were incubated at 37° C. and 5% CO2 with 95% humidity for 24 h prior to addition of compounds. A stock solution of each compound was made in DMSO and then diluted with media to give a 40 μM solution. 100 μL of DMSO/media solutions of compounds were added in replicates of 3. 100 μL solution was added to the first set of wells. Two-fold serial dilutions were made down each row of the micro-titer plate. The cells were incubated in a 37° C., 5% CO2 and 95% humidity for 72 h. The media was removed and the cells were fixed with glutaraldehyde, rinsed, stained with crystal violet, rinsed and air dried. The stain was eluted with a solution of Triton-X-100 and optical density was measured at 595 nm. Trichostatin A was used as a positive control for all the cell lines tested.

[3] = tested on: M. marinum (ATCC: 927); test: NTM MIC assay, M. marinum; format: cell-based, Mycobacterium marinum; conditions: for In vitro activity (MIC) M. marinum: Middlebrook 7H9 with OADC, 30° C., 5 days
[4] = tested on: M. aurum (SB66); test: Broth microdilution MIC, M. aurum; format: cell-based, Mycobacterium aurum; conditions: 37° C., 18-20 h, average of three measurements, in µM
[5] = tested on: M. kansasii (ATCC:12478); test: NTM MIC assay, M. kansasii; format: cell-based, Mycobacterium kansasii; conditions: for In vitro activity (MIC) M. kansasii: Middlebrook 7H9 with OADC, 37° C., 6 days
[6] = tested on: Mtb H37Rv (ATCC#27294); test: Microplate Alamar Blue assay (MABA), replicating TB; format: cell-based, Mycobacterium tuberculosis; conditions: for MIC: Mycobacterium tuberculosis, H37Rv, reduction in fluorescence of ≧90%
[7] = tested on: M. vaccae IMET10670; test: Broth microdilution MIC, M. vaccae; format: cell-based, Mycobacterium vaccae; conditions: 37° C., 18-20 h, average of three measurements
[8] = tested on: P. aeruginosa KW799/61; test: Broth microdilution MIC, P. aeruginosa; format: cell-based, Pseudomonas aeruginosa; conditions: 37° C., 18-20 h, average of three measurements
[9] = tested on: M. smegmatis (MC2155); test: Broth microdilution MIC, M. smegmatis; format: cell-based, Mycobacterium smegmatis; conditions: 37° C., 18-20 h, average of three measurements
[10] = tested on: MCF-7 (breast cancer); test: Cytotoxicity, crystal violet biomass reduction assay, MCF-7; format: cell-based; conditions: 72 h
Protocol: as §1, §2

[11] = tested on: M. bovis BCG (ATCC: 35734); format: cell-based, Mycobacterium bovis; conditions: for In vitro activity (MIC) M. bovis: M. bovis BCG, 7H12, 37° C., 6 days
[12] = tested on: S. aureus SG511; test: Broth microdilution MIC, S. aureus; format: cell-based, Staphylococcus aureus; conditions: 37° C., 18-20 h, average of three measurements
[13] = tested on: PC3 (prostate cancer); test: Cytotoxicity, crystal violet biomass reduction assay, PC3; format: cell-based; conditions: 72 h
Protocol: as §1, §2

[14] = tested on: A. baumanii ATCC17961; test: Broth microdilution MIC, A. baumanii; format: cell-based, Acinetobacter baumanii; conditions: 37° C., 18-20 h, average of three measurements
[15] = 7H12 medium, read-out: MABA:MIC 7H12
[16] = glycerol-alanine-salts medium, read-out: MABA:MIC GAS

C[C@H]1COC2(CCN(c3nc(=O)c4cc(C(F)(F)F)cc([N+](=O)[O-])c4s3)CC2)O1 [Compound 1, BTZ043, reference compound]
In vitro activity (MIC) M. luteus ATCC10240 [1]: > 200 µM
Cytotoxicity HeLa [2]: >20
In vitro activity (MIC) M. marinum [3]: 0.037 µM
In vitro activity (MIC) M. aurum [4]: >200
In vitro activity (MIC) M. kansasii [5]: < 0.02 µM
Activity against M. tuberculosis (in words) [6]: impressive activity
MIC [6, 15]: < 0.02 µM
MIC [6, 16]: < 0.02 µM
In vitro activity (MIC) M. vaccae IMET10670 [7]: 0.002 µM
In vitro activity (MIC) P. aeruginosa KW799/61 [8]: >200
In vitro activity (MIC) M. smegmatis [9]: 0.002 µM
Cytotoxicity MCF-7 [10]: >20
Activity against M. bovis (in words) [11]: impressive activity
In vitro activity (MIC) M. bovis [11]: < 0.02 µM
In vitro activity (MIC) S. aureus SG511 [12]: > 0.2 µM
Cytotoxicity PC3 [13]: >20
In vitro activity (MIC) A. baumanii ATCC17961 [14]: > 200 µM

CO[C@H]1/C=C/O[C@@]2(C)Oc3c(C)c(O)c4c(O)c(c(/C=N/N5CCN(C)CC5)c(O)c4c3C2=O)NC(=O)/C(C)=C\C=C\[C@H](C)[C@H](O)[C@@H](C)[C@@H](O)[C@@H](C)[C@H](OC(C)=O)[C@@H]1C [Rifampin]
In vitro activity (MIC) M. marinum [3]: 0.23 µM
In vitro activity (MIC) M. kansasii [5]: 0.1 µM
MIC [6, 15]: 0.05 µM (≈ 0.0411 µg/mL)
MIC [6, 16]: 0.04 µM
In vitro activity (MIC) M. bovis [11]: 0.02 µM

O=C(O)c1cn(C2CC2)c2cc(N3CCNCC3)c(F)cc2c1=O [Ciprofloxacin, reference compound]
In vitro activity (MIC) M. luteus ATCC10240 [1]: 1.25 µM
In vitro activity (MIC) M. aurum [4]: 0.020
In vitro activity (MIC) M. vaccae IMET10670 [7]: 0.32 µM
In vitro activity (MIC) P. aeruginosa KW799/61 [8]: 0.156
In vitro activity (MIC) M. smegmatis [9]: 0.32 µM
In vitro activity (MIC) S. aureus SG511 [12]: 0.32 µM
In vitro activity (MIC) A. baumanii ATCC17961 [14]: 0.156 µM

NNC(=O)c1ccncc1 [INH]
In vitro activity (MIC) M. marinum [3]: > 8 µM
In vitro activity (MIC) M. kansasii [5]: 3.86 µM
MIC [6, 15]: 0.1 µM (≈ 0.0137 µg/mL)
MIC [6, 16]: 0.03 µM
In vitro activity (MIC) M. bovis [11]: 0.5 µM

C[C@H]1COC2(CCN(c3nc(=O)c4cc(C(F)(F)F)cc([N+](=O)[O-])c4[s+]3[O-])CC2)O1 (stereo partly drawn) [Compound 5, 2-((S)-2-Methyl-1,4-dioxa-8-azaspiro[4.5]decan-8-yl)-8-nitro-6-(trifluoromethyl)-4H-benzo[e][1,3]thiazin-4-one 1-oxide]
In vitro activity (MIC) M. luteus ATCC10240 [1]: 50 µM
Cytotoxicity HeLa [2]: >20
Activity against M. marinum (in words) [3]: demonstrated activity
In vitro activity (MIC) M. marinum [3]: 0.19 µM
In vitro activity (MIC) M. aurum [4]: 3.13-12.5
Activity against M. kansasii (in words) [5]: demonstrated activity
In vitro activity (MIC) M. kansasii [5]: 0.3 µM
Activity against M. tuberculosis (in words) [6]: impressive activity
MIC [6, 15]: 0.06 µM (≈ 0.0268 µg/mL)
MIC [6, 16]: < 0.02 µM
In vitro activity (MIC) M. vaccae IMET10670 [7]: < 0.013 µM
In vitro activity (MIC) P. aeruginosa KW799/61 [8]: >200
In vitro activity (MIC) M. smegmatis [9]: < 0.013 µM
Cytotoxicity MCF-7 [10]: >20
Activity against M. bovis (in words) [11]: impressive activity
In vitro activity (MIC) M. bovis [11]: 0.21 µM
In vitro activity (MIC) S. aureus SG511 [12]: 12.5 µM
Cytotoxicity PC3 [13]: 15
In vitro activity (MIC) A. baumanii ATCC17961 [14]: > 200 µM

C[C@H]1COC2(CCN(C3=NC(=O)c4cc(C(F)(F)F)cc([N+](=O)[O-])c4S3(=O)=O)CC2)O1 [Compound 6, (S)-2-(2-Methyl-1,4-dioxa-8-azaspiro[4.5]decan-8-yl)-8-nitro-6-(trifluoromethyl)-4H-benzo[e][1,3]thiazin-4-one 1,1-dioxide]
In vitro activity (MIC) M. luteus ATCC10240 [1]: > 200 µM
Cytotoxicity HeLa [2]: >20
Activity against M. marinum (in words) [3]: either inactive or weakly inactive
In vitro activity (MIC) M. aurum [4]: >200
Activity against M. kansasii (in words) [5]: either inactive or weakly inactive
Activity against M. tuberculosis (in words) [6]: only weakly active
MIC [6, 15]: 1.46 µM (≈ 0.677 µg/mL)
MIC [6, 16]: 0.75 µM
In vitro activity (MIC) M. vaccae IMET10670 [7]: < 0.013 µM
In vitro activity (MIC) P. aeruginosa KW799/61 [8]: >200
In vitro activity (MIC) M. smegmatis [9]: > 0.5 µM
Cytotoxicity MCF-7 [10]: >20
Activity against M. bovis (in words) [11]: only weakly active
In vitro activity (MIC) S. aureus SG511 [12]: 0.2 µM
Cytotoxicity PC3 [13]: >20
In vitro activity (MIC) A. baumanii ATCC17961 [14]: > 200 µM
